Measurements: publication PMC9421656, “Beyond Retigabine: Design, Synthesis, and Pharmacological Characterization of a Potent and Chemically Stable Neuronal Kv7 Channel Activator with Anticonvulsant Activity” (Journal of Medicinal Chemistry, 2022)
Read-outs that look alike come from different tables or passages of the source.

Key:
[1] = Plasma concentration-time course and half-life in rats; settings: Sprague-Dawley, rat, in vivo, ip, 3 mg/kg
Protocol: (§1) The drug half-lives were calculated using GraphPad Prism 8.0.2 (GraphPad Software, LaJolla, CA).
(§2) Returning to 40% B in 0.10 min. The flow rate was set at 0.5 mL/min. The column oven was set at 45 °C, and 5 μL of extract was injected. All additives and mobile phases were LCMS-grade and purchased from Merck (Milan, Italy).
(§3) The ESI was operated in positive mode. […] Interface temperature, desolvation line temperature, and heat block temperature were set, respectively, to 250, 250, and 350 °C. Nebulizing, drying (N2), and heating gas (air) were set, respectively, to 3, 10, and 10 L/min.

Kv7.4 channels = target: T1, Kv7.4 channels (Homo sapiens, UniProt P56696); experiment: Whole-cell patch-clamp electrophysiology in CHO cells expressing Kv7.4; format: cell-based; settings: 0.1 μM, Kv7.4 currents
T1 construct: expressed in transfected cells; host or cells: CHO cells
Protocol: In order to evaluate the effects of compound 60 on other Kv7 channels, its ability to activate Kv7.4 channels expressed in CHO cells was also investigated. […]. During the recording, constant perfusion of extracellular solution was maintained. The extracellular solution contained (in mM): 138 NaCl, 2 CaCl2, 5.4 KCl, 1 MgCl2, 10 glucose, and 10 HEPES, at pH 7.4, with NaOH. The pipette (intracellular) solution contained (in mM): 140 KCl, 2 MgCl2, 10 EGTA, 10 HEPES, 5 Mg^2+-ATP, at pH 7.3–7.4, with KOH. Current was recorded using an Axopatch-200A amplifier, filtered at 5 kHz, and digitized using a DigiData 1440A (Molecular Devices). The pCLAMP software (version 10.2) was used for data acquisition and analysis (Molecular Devices). To evaluate the activity of each compound on Kv7.2 + Kv7.3 currents, the cells were clamped at −80 mV and conductance–voltage curves (G/V curves; activation curves) were generated by normalizing to the maximal value of the instantaneous isopotential currents at 0 mV and expressing the normalized values as a function of the preceding voltages. Data were fit to a Boltzmann distribution of the following form: y = max/[1 + exp (V1/2 – V)/k], where V is the test potential, V1/2 is the half-activation potential, and k is the slope factor.

Kv7.2/Kv7.3 channels = Kv7.2/Kv7.3 channels (Homo sapiens, UniProt O43525+O43526); experiment: Whole-cell patch-clamp electrophysiology in CHO cells expressing Kv7.2/Kv7.3; format: cell-based; set-up: expressed in transfected cells; host or cells: CHO cells, transient transfection (pcDNA3.1, Lipofectamine 2000); settings: for EC50: dose-response 0.01–30 μM
Protocol: Channel subunits were expressed in Chinese hamster ovary (CHO) cells by transient transfection, using plasmids containing cDNAs encoding human Kv7.2 and/or Kv7.3, all cloned in the pcDNA3.1 vector. According to the experimental protocol, these plasmids were expressed individually or in combination, together with a plasmid-expressing enhanced green fluorescent protein (Clontech, Palo Alto, CA) used as a transfection marker. Total cDNA in the transfection mixture was kept at 4 μg. CHO cells were grown in 100 mm plastic Petri dishes in Dulbecco’s modified Eagle’s medium containing 10% fetal bovine serum, nonessential amino acids (0.1 mM), penicillin (50 U/mL), and streptomycin ([…]) in a humidified atmosphere at 37 °C with 5% CO2.
Currents from CHO cells were recorded at room temperature (20–22 °C) using the whole-cell configuration of the patch-clamp technique, with glass micropipettes of 3–5 MΩ resistance. During the recording, constant perfusion of extracellular solution was maintained. […] The pipette (intracellular) solution contained (in mM): 140 KCl, 2 MgCl2, 10 EGTA, 10 HEPES, 5 Mg^2+-ATP, at pH 7.3–7.4, with KOH. […] To evaluate the activity of each compound on Kv7.2 + Kv7.3 currents, the cells were clamped at −80 mV and conductance–voltage curves (G/V curves; activation curves) were generated by normalizing to the maximal value of the instantaneous isopotential currents at 0 mV and expressing the normalized values as a function of the preceding voltages. Data were fit to a Boltzmann distribution of the following form: y = max/[1 + exp (V1/2 – V)/k], where V is the test potential, V1/2 is the half-activation potential, and k is the slope factor.
Indicated EC50 values are the mean of at least three independent experiments ± standard error of the mean (SEM).
Statistically significant differences in electrophysiological data were evaluated with the Student t test or with ANOVA followed by the Student–Newman–Keuls test when multiple groups were compared, with the threshold set at p < 0.05. […] Values are expressed as the […] mean ± standard error of the mean (SEM) of at least three cells recorded in at least three independent transfections.

in vivo = settings: Sprague-Dawley, rat, ip, 0.3 mg/kg
Protocol: as §1, §2, §3

[2] = Chemical stability in aqueous buffer without light exposure; format: physicochemical; settings: 3 h, avoiding UV light exposure
Protocol: […]. The reduced electron availability at N2 and N4 due to the presence of fluorine atom in position 3 of compound 60 strongly reduces also the first photo-oxidative step, thus conferring remarkable photostability.
Photostability experiments were performed by dissolving compounds in DMSO and then diluting in buffered aqueous solutions at pH 7.4 to a final concentration of 10 μM. 1 cm quartz cells, filled with the abovementioned solutions, were irradiated by a UV lamp (UV Consulting TQ 150 equipped with Duran 50 sleeve and 150 W power supply unit, Peschl, Germany) at a fixed distance of 20 cm from the UV source. Control samples were maintained at 37 °C, wrapped with aluminum foil to avoid light exposure, and used to assess chemical stability of the compounds. At predetermined intervals, aliquots were withdrawn and analyzed by UHPLC in order to assess the concentration decrease of the starting materials and the presence of the dimers usually formed by retigabine.
Photostability and chemical stability experiments were carried out on a Kinetex^TM C18 150 × 2.1 mm × 2.6 μm (100 Å) column (Phenomenex, Bologna, Italy). […] Data acquisition was set in the range 190–800 nm, and chromatograms were monitored at 224 nm to assess the decrease in concentration of the starting material, while a wavelength of 550 nm was used to eventually detect dimerization.

SMILES	half-life [1]	Idrug/Icontrol (Kv7.4 channels)	ΔV1/2 (Kv7.4 channels)	Potency relative to RL-81 (Kv7.2/Kv7.3 channels)	Leftward shift in V1/2 (ΔV1/2) (Kv7.2/Kv7.3 channels; 1 μM)	Idrug/Icontrol (maximal current density) (Kv7.2/Kv7.3 channels; calculated at +20 mV)	EC50 (Kv7.2/Kv7.3 channels; current at +20 mV, read-out: Maximal currents EC50)	EC50 (Kv7.2/Kv7.3 channels; read-out: ΔV1/2 EC50)	Potency over retigabine as Kv7.2/Kv7.3 activator (fold/times) (Kv7.2/Kv7.3 channels; from ΔV1/2 EC50)	concentration at 0.5 h (in vivo)	concentration at 2 h (in vivo)	concentration at 4 h (in vivo)	concentration at 8 h (in vivo)	concentration at 24 h (in vivo)	half-life (in vivo)	Chemical stability [2]
CCOC(=O)Nc1ccc(NCc2ccc(F)cc2)cc1N [RET, retigabine]	2.4 h	–	–	–	–	–	–	–	–	–	–	–	–	–	–	–
CC(C)(C)CC(=O)Nc1ccc(NCc2ccc(C(F)(F)F)cc2)c(F)c1N [compound 60, N-(2-Amino-3-fluoro-4-((4-(trifluoromethyl)benzyl)amino)phenyl)-3,3-dimethylbutanamide]	–	2.5 ± 0.3	−29.2 ± 4.4 mV	about twice more potent than RL-81	~50 mV	2.1 ± 0.3	60 ± 10 nM	150 ± 30 nM	16	9 ng/mL	8.7 ng/mL	6.8 ng/mL	5.4 ng/mL	0 ng/mL	16.9 h	showed chemical stability
